Data reported in ChEMBL document CHEMBL2406968, “Heteroaryl sodium channel inhibitors” (ACS Med Chem Lett, 2013).

Legend:
[1] = target: Sodium channel protein type 9 subunit alpha (Homo sapiens) (UniProt Q15858); assay: Inhibition of Nav1.7 (unknown origin) expressed in HEK293 cells by automated patch clamp assay; type: cell-based
[2] = target: Sodium channel protein type 11 subunit alpha (Homo sapiens) (UniProt Q9UI33); assay: Inhibition of Nav1.9 (unknown origin) expressed in HEK293 cells by automated patch clamp assay; type: cell-based
Sequence of Sodium channel protein type 11 subunit alpha (Homo sapiens) (Q9UI33 whole entry): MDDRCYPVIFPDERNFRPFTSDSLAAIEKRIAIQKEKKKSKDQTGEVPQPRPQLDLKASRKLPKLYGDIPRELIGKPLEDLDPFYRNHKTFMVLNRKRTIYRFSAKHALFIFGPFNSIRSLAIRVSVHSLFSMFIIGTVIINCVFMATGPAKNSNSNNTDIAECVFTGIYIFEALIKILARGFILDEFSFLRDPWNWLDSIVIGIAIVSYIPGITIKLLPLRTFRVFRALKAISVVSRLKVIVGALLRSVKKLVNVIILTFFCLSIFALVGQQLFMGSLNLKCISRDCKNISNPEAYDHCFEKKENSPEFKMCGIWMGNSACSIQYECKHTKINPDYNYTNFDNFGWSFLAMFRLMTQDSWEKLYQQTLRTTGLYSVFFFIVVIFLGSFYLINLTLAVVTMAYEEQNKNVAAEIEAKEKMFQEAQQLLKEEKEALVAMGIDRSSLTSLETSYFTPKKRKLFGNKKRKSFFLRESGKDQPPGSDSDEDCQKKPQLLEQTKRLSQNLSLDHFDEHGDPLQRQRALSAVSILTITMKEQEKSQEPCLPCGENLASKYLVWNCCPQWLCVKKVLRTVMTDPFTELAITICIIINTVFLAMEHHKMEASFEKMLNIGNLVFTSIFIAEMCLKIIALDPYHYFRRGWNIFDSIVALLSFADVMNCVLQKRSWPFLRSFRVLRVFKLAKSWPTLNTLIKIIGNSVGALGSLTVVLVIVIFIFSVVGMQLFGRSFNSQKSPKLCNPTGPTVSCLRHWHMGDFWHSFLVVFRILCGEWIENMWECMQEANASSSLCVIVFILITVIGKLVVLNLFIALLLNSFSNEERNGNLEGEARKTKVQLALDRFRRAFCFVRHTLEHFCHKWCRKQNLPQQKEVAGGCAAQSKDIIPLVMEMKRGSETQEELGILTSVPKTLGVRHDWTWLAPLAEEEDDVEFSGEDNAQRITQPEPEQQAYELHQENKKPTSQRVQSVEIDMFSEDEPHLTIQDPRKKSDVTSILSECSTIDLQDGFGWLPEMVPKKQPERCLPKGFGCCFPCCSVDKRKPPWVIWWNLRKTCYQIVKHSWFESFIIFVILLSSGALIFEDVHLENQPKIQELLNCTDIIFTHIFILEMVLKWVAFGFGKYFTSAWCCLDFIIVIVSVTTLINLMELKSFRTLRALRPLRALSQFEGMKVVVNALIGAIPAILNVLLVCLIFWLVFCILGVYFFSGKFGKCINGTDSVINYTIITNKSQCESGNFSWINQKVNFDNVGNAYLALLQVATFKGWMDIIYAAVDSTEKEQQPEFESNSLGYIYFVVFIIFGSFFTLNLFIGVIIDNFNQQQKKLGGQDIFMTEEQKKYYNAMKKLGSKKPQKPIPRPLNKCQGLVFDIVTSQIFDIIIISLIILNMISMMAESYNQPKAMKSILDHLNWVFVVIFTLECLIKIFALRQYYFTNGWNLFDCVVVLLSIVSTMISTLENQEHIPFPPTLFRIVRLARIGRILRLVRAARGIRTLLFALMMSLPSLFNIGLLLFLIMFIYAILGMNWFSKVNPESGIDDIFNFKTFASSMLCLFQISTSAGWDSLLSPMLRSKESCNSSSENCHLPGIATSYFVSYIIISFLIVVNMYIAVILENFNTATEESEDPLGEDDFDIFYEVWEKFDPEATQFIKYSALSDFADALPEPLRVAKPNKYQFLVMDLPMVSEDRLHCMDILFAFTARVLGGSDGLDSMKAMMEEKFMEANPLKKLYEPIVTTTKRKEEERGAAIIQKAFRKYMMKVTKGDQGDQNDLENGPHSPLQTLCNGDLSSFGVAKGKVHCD

Sequence of Sodium channel protein type 9 subunit alpha (Homo sapiens) (Q15858 whole entry, looked up): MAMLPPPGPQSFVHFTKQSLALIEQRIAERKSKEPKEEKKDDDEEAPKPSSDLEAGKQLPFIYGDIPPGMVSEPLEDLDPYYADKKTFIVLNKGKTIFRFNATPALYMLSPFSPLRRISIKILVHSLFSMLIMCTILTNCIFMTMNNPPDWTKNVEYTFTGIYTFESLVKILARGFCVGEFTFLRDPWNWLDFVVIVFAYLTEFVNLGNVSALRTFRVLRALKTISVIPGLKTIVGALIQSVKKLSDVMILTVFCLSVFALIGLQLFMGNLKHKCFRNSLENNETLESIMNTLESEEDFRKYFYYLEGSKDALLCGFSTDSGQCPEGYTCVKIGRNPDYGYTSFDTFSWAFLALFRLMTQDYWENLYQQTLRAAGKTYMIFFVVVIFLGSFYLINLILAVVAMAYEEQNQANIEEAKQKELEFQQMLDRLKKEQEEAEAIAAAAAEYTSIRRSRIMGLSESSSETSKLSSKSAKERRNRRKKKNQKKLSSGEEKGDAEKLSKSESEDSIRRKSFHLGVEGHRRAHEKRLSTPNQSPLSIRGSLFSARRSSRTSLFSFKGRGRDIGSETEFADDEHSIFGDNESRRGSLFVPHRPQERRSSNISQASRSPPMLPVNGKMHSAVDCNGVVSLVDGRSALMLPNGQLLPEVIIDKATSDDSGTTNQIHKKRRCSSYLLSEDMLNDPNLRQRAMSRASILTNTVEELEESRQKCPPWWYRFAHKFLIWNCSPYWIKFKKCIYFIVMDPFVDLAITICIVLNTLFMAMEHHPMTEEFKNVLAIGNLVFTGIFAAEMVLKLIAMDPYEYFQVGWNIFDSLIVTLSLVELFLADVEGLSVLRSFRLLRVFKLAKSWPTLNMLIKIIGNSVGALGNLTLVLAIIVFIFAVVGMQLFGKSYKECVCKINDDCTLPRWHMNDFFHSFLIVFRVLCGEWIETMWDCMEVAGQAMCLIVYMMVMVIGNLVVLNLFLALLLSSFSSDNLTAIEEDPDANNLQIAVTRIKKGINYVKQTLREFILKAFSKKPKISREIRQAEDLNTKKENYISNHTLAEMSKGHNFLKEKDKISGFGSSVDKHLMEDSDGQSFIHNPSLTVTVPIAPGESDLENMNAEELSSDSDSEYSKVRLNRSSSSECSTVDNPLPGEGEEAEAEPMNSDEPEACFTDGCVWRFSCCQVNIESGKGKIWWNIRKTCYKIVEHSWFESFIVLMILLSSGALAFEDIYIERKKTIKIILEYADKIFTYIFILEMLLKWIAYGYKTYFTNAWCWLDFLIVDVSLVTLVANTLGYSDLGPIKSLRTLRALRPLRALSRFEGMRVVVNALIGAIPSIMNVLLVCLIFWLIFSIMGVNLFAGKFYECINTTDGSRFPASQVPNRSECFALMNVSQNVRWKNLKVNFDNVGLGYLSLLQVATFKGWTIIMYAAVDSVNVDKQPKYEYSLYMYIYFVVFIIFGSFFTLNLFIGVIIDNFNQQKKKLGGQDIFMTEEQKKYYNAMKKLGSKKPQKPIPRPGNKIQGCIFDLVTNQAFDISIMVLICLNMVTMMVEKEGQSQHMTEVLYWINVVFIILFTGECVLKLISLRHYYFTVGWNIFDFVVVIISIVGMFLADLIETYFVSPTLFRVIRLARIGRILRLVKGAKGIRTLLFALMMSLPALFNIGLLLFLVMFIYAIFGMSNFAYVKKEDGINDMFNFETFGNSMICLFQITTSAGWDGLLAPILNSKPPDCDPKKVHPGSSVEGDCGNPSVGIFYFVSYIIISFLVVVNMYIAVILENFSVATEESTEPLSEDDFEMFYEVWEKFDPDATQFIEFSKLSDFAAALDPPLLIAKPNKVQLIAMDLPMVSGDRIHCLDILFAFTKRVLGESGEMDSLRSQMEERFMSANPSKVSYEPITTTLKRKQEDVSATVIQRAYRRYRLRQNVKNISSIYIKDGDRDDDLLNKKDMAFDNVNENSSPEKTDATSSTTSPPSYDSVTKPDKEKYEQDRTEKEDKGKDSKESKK

| SMILES | INH [1] | INH [2] |
| --- | --- | --- |
| Cn1cc(-c2ccc(C(F)(F)F)cc2-c2ccncc2)c2ccc(S(=O)(=O)Nc3ncns3)cc21 | 0.05 µM | > 10 µM |
| CC(=O)n1cc(-c2ccc(C(F)(F)F)cc2-c2ccnn2C)c2ccc(S(=O)(=O)Nc3ncns3)cc21 | 0.0505 µM | > 10 µM |
| Cn1cc(-c2cccc3c2CCNC3)c2ccc(S(=O)(=O)Nc3ncns3)cc21 | 0.292 µM | > 10 µM |
| Cn1nccc1-c1cc(Cl)ccc1-c1cn(C)c2cc(S(=O)(=O)Nc3ncns3)ccc12 | 0.253 µM | > 10 µM |
| Cn1nccc1-c1cc(C(F)(F)F)ccc1-c1cn(C)c2cc(S(=O)(=O)Nc3ncns3)ccc12 | 0.147 µM | > 10 µM |
| Cn1cc(-c2ccc(C(F)(F)F)cc2C2=CCNCC2)c2ccc(S(=O)(=O)Nc3ncns3)cc21 | 0.0425 µM | > 10 µM |
| Cn1cc(-c2ccc(C(F)(F)F)cc2-c2ccn[nH]2)c2ccc(S(=O)(=O)Nc3ncns3)cc21 | 0.0375 µM | > 10 µM |
| Cn1cc(-c2ccc(C(F)(F)F)cc2-c2ccnn2C2CNC2)c2ccc(S(=O)(=O)Nc3ncns3)cc21 | 0.263 µM | > 10 µM |
| Cn1cc(-c2cccc3ccccc23)c2ccc(S(=O)(=O)Nc3ncns3)cc21 | 0.306 µM | > 10 µM |
